Measured values reported in paper PMC6213900, “Design, Synthesis, and Cytotoxic Analysis of Novel Hederagenin–Pyrazine Derivatives Based on Partial Least Squares Discriminant Analysis” (International Journal of Molecular Sciences, 2018).

Tests used:
[1] = system: H9c2 (murine heart myoblast); assay: MTT toxicity evaluation, H9c2; type: cell-based; conditions: H9c2, 72 h treatment, non-tumor cells, read-out: Half Maximal Inhibitory Concentration (IC50) H9c2
Method in brief: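 Cells seeded at 3 × 10^3/well in DMEM/10% FBS, then treated 72 h with 3.125–50 μM compound in DMSO. MTT (5 mg/mL) added for 4 h, formazan dissolved in DMSO, absorbance read at 490 nm; inhibition relative to untreated control, IC50 as 50% growth inhibition, triplicate runs.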

A549 cells = assay: Giemsa staining, morphological detection of apoptosis; type: cell-based, human; conditions: 72 h
Description: With an increase in dose, the phenomenon of cell shrinkage and cell disruption became more obvious.
A549 cells in the logarithmic growth phase were seeded in 12-well plates (1.2 × 10^4 cells/well). After incubation for 24 h at 37 °C with 5% CO2, various concentrations (0, 2, 4, or 6 μM) of compound 9 were added to the cultures, and the plate was incubated for further 72 h. Then, we discarded the cell culture fluid, washed twice with phosphate-buffered saline (PBS), and fixed the cells with cold methanol. The A549 cells were stained with 6% Giemsa solution for 5 min, washed with water, and dried. The cell morphological changes were observed under an inverted microscope.

[2] = system: HepG2, A549, MCF-7, H9c2, and MDCK cells; assay: MTT assay, panel of five cell lines (summary in discussion); type: cell-based; conditions: read-out: IC50 values ranging (cell lines not specified)
Description: A series of different esters of He were designed and synthesized. All these compounds were screened for cytotoxic activity employing a panel of five cell lines, including HepG2, A549, MCF-7, H9c2, and MDCK cells, using the MTT assay. […] Further intensive modifications at C-23 and studies are currently being performed in our research group, and the results will be reported in due course.
The antitumor activity of these compounds were evaluated on MCF-7, A549, HepG2, MDCK, and H9c2 cell lines using the MTT assay. Cells at a density of 3 × 10^3 cells/well were plated in a 96-multiwell plate in DMEM containing 10% FBS for 24 h at 37 °C with 5% CO2. Then, cells were treated for 72 h with the required concentrations (3.125, 6.25, 12.5, 25, or 50 μM) of the compounds and reference drugs (He and DDP) dissolved with the vehicle DMSO. After that, the culture substrate was replaced with 200 μL of DMEM containing 20 μL of MTT solution at 5 mg/mL and incubated for 4 h. The supernatant was removed and the dissolved formazans precipitated with 120 μL of DMSO. Wells without drugs were used as blanks. A plate reader was used to determine the absorbance at 490 nm. The above steps were repeated three times. The IC50 values were defined as the concentration of the compound which gave 50% growth inhibition, and they were calculated using Graph Pad Prism 5. […]

Cc1cncc(C(=O)OCCOC(=O)[C@]23CCC(C)(C)CC2C2=CCC4[C@@]5(C)CC[C@H](O)[C@@](C)(CO)C5CC[C@@]4(C)[C@]2(C)CC3)n1 (stereo partly drawn) [Compound 9, 2-(((4aS,6aS,6bR,9R,10S,12aR)-10-Hydroxy-9-(hydroxymethyl)-2,2,6a,6b,9,12a-hexamethyl-1,2,3,4,4a,5,6,6a,6b,7,8,8a,9,10,11,12,12a,12b,13,14b-icosahydropicene-4a-carbonyl)oxy)ethyl-6-methylpyrazine-2-carboxylate]
IC50 [1]: 16.69 ± 0.12 µM | cell morphology, Giemsa staining (A549 cells; 2 μM): the cells had a lot of puffing and fragmentation | cell morphology, Giemsa staining (A549 cells; 6 μM): almost no normal cell morphology | IC50 [2]: 3.22 to 4.48 µM
